Laboratory results reported in ChEMBL document CHEMBL3872249, “Computer design, synthesis, and bioactivity analyses of drugs like fingolimod used in the treatment of multiple sclerosis” (Bioorg Med Chem, 2017).

How the values were obtained:
Assay type in all cases: functional
[1] = test system: SH-SY5Y; assay: Effect on CSF1 mRNA expression in human SH-SY5Y cells at EC10 by qPCR method relative to beta-actin
[2] = test system: SH-SY5Y; assay: Effect on FASLG mRNA expression in human SH-SY5Y cells at EC10 by qPCR method relative to beta-actin
[3] = test system: SH-SY5Y; assay: Effect on APP mRNA expression in human SH-SY5Y cells at EC10 by qPCR method relative to beta-actin
[4] = test system: SH-SY5Y; assay: Effect on FOXP3 mRNA expression in human SH-SY5Y cells at EC10 by qPCR method relative to beta-actin
[5] = test system: SH-SY5Y; assay: Effect on GRM7 mRNA expression in human SH-SY5Y cells at EC10 by qPCR method relative to beta-actin
[6] = test system: U-118-MG; assay: Effect on RAF1 mRNA expression in human U118MG cells at EC10 by qPCR method relative to beta-actin
[7] = test system: U-118-MG; assay: Effect on HLA-DRB1 mRNA expression in human U118MG cells at EC10 by qPCR method relative to beta-actin
[8] = test system: U-118-MG; assay: Effect on APP mRNA expression in human U118MG cells at EC10 by qPCR method relative to beta-actin
[9] = test system: U-118-MG; assay: Effect on OPRD1 mRNA expression in human U118MG cells at EC10 by qPCR method relative to beta-actin
[10] = test system: U-118-MG; assay: Effect on AGT mRNA expression in human U118MG cells at EC10 by qPCR method relative to beta-actin
[11] = test system: SK-N-SH; assay: Effect on MAL mRNA expression in human SK-N-SH cells at EC10 by qPCR method relative to beta-actin
[12] = test system: SK-N-SH; assay: Effect on APP mRNA expression in human SK-N-SH cells at EC10 by qPCR method relative to beta-actin
[13] = test system: SK-N-SH; assay: Effect on HDAC1 mRNA expression in human SK-N-SH cells at EC10 by qPCR method relative to beta-actin
[14] = test system: SK-N-SH; assay: Effect on HIF1 mRNA expression in human SK-N-SH cells at EC10 by qPCR method relative to beta-actin
[15] = test system: SK-N-SH; assay: Effect on AGT mRNA expression in human SK-N-SH cells at EC10 by qPCR method relative to beta-actin
[16] = test system: SK-N-SH; assay: Effect on GRM7 mRNA expression in human SK-N-SH cells at EC10 by qPCR method relative to beta-actin
[17] = test system: SH-SY5Y; assay: Effect on CXCL11 mRNA expression in human SH-SY5Y cells at EC10 by qPCR method relative to beta-actin
[18] = test system: SH-SY5Y; assay: Effect on C1S mRNA expression in human SH-SY5Y cells at EC10 by qPCR method relative to beta-actin
[19] = test system: SH-SY5Y; assay: Effect on CRHR1 mRNA expression in human SH-SY5Y cells at EC10 by qPCR method relative to beta-actin
[20] = test system: SH-SY5Y; assay: Effect on EDN1 mRNA expression in human SH-SY5Y cells at EC10 by qPCR method relative to beta-actin
[21] = test system: SH-SY5Y; assay: Effect on GCGR mRNA expression in human SH-SY5Y cells at EC10 by qPCR method relative to beta-actin
[22] = test system: SH-SY5Y; assay: Effect on GRM2 mRNA expression in human SH-SY5Y cells at EC10 by qPCR method relative to beta-actin
[23] = test system: U-118-MG; assay: Effect on IL18 mRNA expression in human U118MG cells at EC10 by qPCR method relative to beta-actin
[24] = test system: U-118-MG; assay: Effect on GRM1 mRNA expression in human U118MG cells at EC10 by qPCR method relative to beta-actin
[25] = test system: U-118-MG; assay: Effect on GRM2 mRNA expression in human U118MG cells at EC10 by qPCR method relative to beta-actin
[26] = test system: SK-N-SH; assay: Effect on IL2 mRNA expression in human SK-N-SH cells at EC10 by qPCR method relative to beta-actin
[27] = test system: SK-N-SH; assay: Effect on C1S mRNA expression in human SK-N-SH cells at EC10 by qPCR method relative to beta-actin
[28] = test system: SK-N-SH; assay: Effect on LTA mRNA expression in human SK-N-SH cells at EC10 by qPCR method relative to beta-actin
[29] = test system: SK-N-SH; assay: Effect on CRHR1 mRNA expression in human SK-N-SH cells at EC10 by qPCR method relative to beta-actin
[30] = test system: SK-N-SH; assay: Effect on MAPK1 mRNA expression in human SK-N-SH cells at EC10 by qPCR method relative to beta-actin
[31] = test system: SK-N-SH; assay: Effect on GRM2 mRNA expression in human SK-N-SH cells at EC10 by qPCR method relative to beta-actin
[32] = test system: SH-SY5Y; assay: Effect on PLP1 mRNA expression in human SH-SY5Y cells at EC10 by qPCR method relative to beta-actin
[33] = test system: SH-SY5Y; assay: Effect on TGFB1 mRNA expression in human SH-SY5Y cells at EC10 by qPCR method relative to beta-actin
[34] = test system: SH-SY5Y; assay: Effect on HLA-DRB1 mRNA expression in human SH-SY5Y cells at EC10 by qPCR method relative to beta-actin
[35] = test system: U-118-MG; assay: Effect on TGFB1 mRNA expression in human U118MG cells at EC10 by qPCR method relative to beta-actin
[36] = test system: U-118-MG; assay: Effect on TGFB2 mRNA expression in human U118MG cells at EC10 by qPCR method relative to beta-actin
[37] = test system: U-118-MG; assay: Effect on CXCL9 mRNA expression in human U118MG cells at EC10 by qPCR method relative to beta-actin
[38] = test system: U-118-MG; assay: Effect on TNFRSF1A mRNA expression in human U118MG cells at EC10 by qPCR method relative to beta-actin
[39] = test system: U-118-MG; assay: Effect on TNFRSF1B mRNA expression in human U118MG cells at EC10 by qPCR method relative to beta-actin
[40] = test system: SK-N-SH; assay: Effect on TGFB2 mRNA expression in human SK-N-SH cells at EC10 by qPCR method relative to beta-actin

CCCCCCCCc1ccc(CCC(N)(CO)CO)cc1 [FINGOLIMOD]
fold change (FC) [1]: -3.1329 | fold change (FC) [2]: -3.0525 | fold change (FC) [3]: -10.004 | fold change (FC) [4]: -5.5022 | fold change (FC) [5]: -5.361 | fold change (FC) [6]: -3.8172 | fold change (FC) [7]: -3.4313 | fold change (FC) [8]: -2.5646 | fold change (FC) [9]: 3.818 | fold change (FC) [10]: 5.5368 | fold change (FC) [11]: -4.2778 | fold change (FC) [12]: -8.0801 | fold change (FC) [13]: -6.6778 | fold change (FC) [14]: -3.1808 | fold change (FC) [15]: 5.63 | fold change (FC) [16]: -6.2306

CCCCCCCCn1nnnc1CCC(N)(CO)CO.Cl
fold change (FC) [17]: -5.0428 | fold change (FC) [18]: -2.6686 | fold change (FC) [19]: 4.2103 | fold change (FC) [20]: 7.826 | fold change (FC) [21]: -4.2885 | fold change (FC) [22]: -4.9647 | fold change (FC) [23]: -3.772 | fold change (FC) [24]: -6.1329 | fold change (FC) [25]: -3.2823 | fold change (FC) [26]: -4.9224 | fold change (FC) [27]: -5.1582 | fold change (FC) [28]: -5.1941 | fold change (FC) [29]: 4.6448 | fold change (FC) [30]: -10.5515 | fold change (FC) [31]: -5.1941

CCCCCCCCn1nnnc1-c1ccc(C(O)CC(N)(CO)CO)cc1.Cl (stereo not given)
fold change (FC) [32]: 3.7859 | fold change (FC) [33]: -5.0784 | fold change (FC) [34]: -2.5613 | fold change (FC) [35]: -5.1404 | fold change (FC) [36]: -5.915 | fold change (FC) [37]: -4.1536 | fold change (FC) [38]: -3.0144 | fold change (FC) [39]: -3.1207 | fold change (FC) [40]: -4.9847
